The term inhibition denotes the drop in the measured response relative to a control, in per cent. What is called IC50 is the concentration at which inhibition is half-maximal. What is called viability is a read-out of living cells in per cent, often relative to untreated cells. For orientation: CC50 means the concentration that lowers cell viability or growth by half.

Consider 16 compounds from PMC10823475, “Design, Synthesis, and Evaluation of Inhibitors of Hedgehog Acyltransferase” (Journal of Medicinal Chemistry, 2024).

Data set [1] deals with T1, purified HHAT (Homo sapiens, UniProt Q5VTY9).
T1 construct: made in house
In words: Acyl-cLIP assay, inhibition of purified HHAT. Conditions: for IC50: purified HHAT, read-out: Acyl-cLIP Assay IC50 (CI95). The data set is classed as biochemical. As to the method: The inhibitory potency of all 50 compounds against purified HHAT was quantified using the acylation-coupled lipophilic induction of polarization (acyl-cLIP) assay recently developed in our lab, a universally applicable assay for high-throughput analysis of protein–lipid transferases and hydrolases.[31],[40] In brief, in this assay a fluorescently labeled peptide based on the N-terminal sequence of SHH is incubated with N-dodecyl β-D-maltoside (DDM) solubilized purified HHAT, palmitoyl-CoA, and HHAT inhibitors. Binding of the lipidated peptide product to the DDM micelle results in decreased tumbling rate and an increase in polarization of fluorescence emission, enabling facile quantification of HHAT activity. Initially, % HHAT inhibition was determined at 50 μM and 25 μM for all analogues. […] HHAT is a 12-pass TM protein,[14] and we considered whether lipophilicity might bias inhibition; pIC50 values were compared to calculated log D, which indicated no significant correlation (SI, Table S1 and Figure S2). We concluded that lipophilicity is not a general driver of HHAT inhibitory potency.
The acyl-cLIP assay has been described previously.[40] Briefly, SHH-FAM peptide was diluted in buffer A (100 mM MES, 20 mM NaCl, 1 mM DTT, 1 mM TCEP, 0.1% BSA, pH 6.5) to a concentration of 2 μM. Palmitoyl-CoA (Sigma-Aldrich) was diluted in buffer A to 7.5 μM and recombinant HHAT (obtained by following the published protocol[14]) in buffer B (20 mM HEPES, 350 mM NaCl, 1% DDM, 5% glycerol, pH 7.3) diluted to 44 μg/mL. 1.5 μL of a 50 mM inhibitor DMSO stock was diluted with 18.5 μL of DMSO and further serial diluted (1:1). For each condition, 6 μL of the HHAT working stock and […] of the SHH-peptide working stock were mixed with 3 μL of the corresponding inhibitor concentration or DMSO vehicle. Twelve μL/well of this mixture was split into four wells of a black 384 well plate. To start the reaction, 8 μL of the Pal-CoA working stock were added to each well and fluorescence anisotropy and the total fluorescence recorded on an EnVision Xcite 2104 (PerkinElmer) over 30 min (emission filter 1 = FITC FP P-pol 535; emission filter 2 = FITC S-pol 535; excitation filter: FITC FP 480; measurement height = 6.5 mm; detector gain = 0; high concentration gain). Initial rate constants were determined by linear regression and normalized to DMSO control and samples with buffer B instead of HHAT. IC50 values were extracted from the corresponding dose response curves using a “sigmoidal dose response (variable slope)” model in GraphPad Prism 5 (GraphPad Software, Inc.).

A short description of data set [2]: MTS assay, cytotoxicity (72 h). Format: cell-based. Conditions: human, HEK293a SHH+ cells, 72 h; for CC50 at 72 h: read-out: MTS Assay (HEK293a SHH+) CC50 (CI95). As to the method: The survival of HEK293a SHH^+ cells is independent of HH signaling,[35] therefore, the cytotoxicity of analogues was tested using the MTS assay to investigate off-target toxicity. In this assay, HEK293a SHH^+ cells were treated with DMSO vehicle or varying concentrations of analogues for 72 h. Subsequently, a mixture of 1-methoxy phenazine methosulfate (PMS) and [3-(4,5-dimethylthiazol-2-yl)-5-(3-carboxymethoxyphenyl)-2-(4-sulfophenyl)-2H-tetrazolium] (MTS) was added to enable quantification of cell number via colorimetric analysis. […] Compounds 3, 17, 19, 32, 34, 38, and 45, which all contain a 2-((2-methylbutyl)amino)acetyl, were toxic to HEK293a SHH^+ cells, as were ureas 26, 40, and 41.
HEK293a SHH^+ cells were plated at 5000 cells/well in a 96-well plate (Nunc) using a volume of 50 μL/well and cultured for 24 h as described. Cells were treated with 100 μL/well of either DMSO vehicle, Puromycin (2 μg/mL), or stated analogues (0.14–100 μM final) in DMEM supplemented with 10% FBS. After 72 h, 20 μL/well of a mixture of 1-methoxy phenazine methosulfate (PMS) and [3-(4,5-dimethylthiazol-2-yl)-5-(3-carboxymethoxyphenyl)-2-(4-sulfophenyl)-2H-tetrazolium] (MTS) at a ratio of MTS/PMS = 2/0.92 mg/mL in PBS was added and the plates were incubated for 3 h at 37 °C. Subsequently, the absorption at 490 nm was recorded using an EnVision Xcite 2104 (PerkinElmer), and the response was normalized to vehicle control and Puromycin treated samples. Dose response curves were fitted to a “sigmoidal dose response (variable slope)” model using GraphPad Prism 5 (GraphPad Software, Inc.).
In general terms: Tetrazolium dyes change colour on reduction, which living cells bring about.

T1 sequence (Q5VTY9 whole entry): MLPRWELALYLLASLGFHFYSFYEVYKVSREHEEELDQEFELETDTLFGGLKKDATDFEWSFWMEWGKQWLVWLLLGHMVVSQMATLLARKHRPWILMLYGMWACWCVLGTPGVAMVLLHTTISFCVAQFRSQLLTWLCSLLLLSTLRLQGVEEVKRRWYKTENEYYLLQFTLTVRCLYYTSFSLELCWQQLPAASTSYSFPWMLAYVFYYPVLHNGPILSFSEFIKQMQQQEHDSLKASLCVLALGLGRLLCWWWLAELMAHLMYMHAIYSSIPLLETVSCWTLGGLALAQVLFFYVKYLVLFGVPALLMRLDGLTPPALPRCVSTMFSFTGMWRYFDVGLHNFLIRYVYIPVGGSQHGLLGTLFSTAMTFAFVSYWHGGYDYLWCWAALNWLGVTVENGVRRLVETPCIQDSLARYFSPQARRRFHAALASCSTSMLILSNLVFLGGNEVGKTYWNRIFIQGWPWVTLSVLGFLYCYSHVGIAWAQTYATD

Take `CCCCCCCC(=O)N1CCc2sccc2C1c1ccccc1` (stereo not drawn) [Compound 13, 1-(4-Phenyl-6,7-dihydrothieno[3,2-c]pyridin-5(4H)-yl)octan-1-one]: in data set [1], the “HHAT inhibition in the acyl-cLIP assay” value is recorded as “loss of activity”, the inhibition at 25 µM worked out at 6 ± 6%, the inhibition at 50 µM stood at 4 ± 6% and the IC50 is more than 25 µM. In data set [2], this compound had a viability at 72 h, 12.5 µM of 47 ± 1% and a viability at 72 h, 25 µM of 35 ± 2%.
With `C[C@H](N)C(=O)N1CCc2sccc2C1c1ccccc1` (stereo partly drawn) [Compound 7, (2S)-2-Amino-1-(4-phenyl-6,7-dihydrothieno[3,2-c]pyridin-5(4H)-yl)propan-1-one], in data set [1], the inhibition at 25 µM is 42 ± 1% and the inhibition at 50 µM came out at 67 ± 3%. In data set [2], the viability at 72 h, 12.5 µM stood at 99 ± 3% and the viability at 72 h, 25 µM worked out at 74 ± 4%.
As to `N[C@H](C(=O)N1CCc2sccc2C1c1ccccc1)c1ccccc1` (stereo partly drawn) [Compound 10, (2S)-2-Amino-2-phenyl-1-(4-phenyl-6,7-dihydrothieno[3,2-c]pyridin-5(4H)-yl)ethan-1-one], in data set [1], the inhibition at 25 µM turned out to be 18 ± 1%, the inhibition at 50 µM stood at 21 ± 7% and the 50% inhibitory concentration (IC50) is more than 25 µM. In data set [2], this compound had a viability at 72 h, 12.5 µM of 74 ± 3% and a viability at 72 h, 25 µM of 43 ± 2%.
Turning to `CCC(C)CNCC(=O)N1CCCCC1c1ccccn1` (stereo not drawn) [Compound 50, 2-((2-Methylbutyl)amino)-1-(2-(pyridin-2-yl)piperidin-1-yl)ethan-1-one], in data set [1], the inhibition at 25 µM was determined as 8 ± 1%, the inhibition at 50 µM was found to be 3 ± 1% and the half-inhibitory concentration (IC50) is more than 25 µM. For the same compound, in data set [2], the cytotoxic concentration (CC50) at 72 h is more than 100 µM; the viability at 72 h, 12.5 µM turned out to be 88 ± 2%; the viability at 72 h, 25 µM amounted to 86 ± 2%.
For `CCC(C)CNCC(=O)N1CCc2cc(OC)c(OC)cc2C1c1ccccc1` (stereo not drawn) [Compound 44, 1-(6,7-Dimethoxy-1-phenyl-3,4-dihydroisoquinolin-2(1H)-yl)-2-((2-methylbutyl)amino)ethan-1-one], in data set [1], the “HHAT inhibition in the acyl-cLIP assay” value is listed as “complete loss of HHAT inhibition”, the inhibition at 25 µM amounted to 7 ± 3%, the inhibition at 50 µM came to 8 ± 2% and the IC50 is more than 100 µM. Further, in data set [2], the CC50 at 72 h is more than 100 µM; the viability at 72 h, 12.5 µM turned out to be 96 ± 3%; the viability at 72 h, 25 µM was found to be 95 ± 5%.
For `CC(=O)N1CCCCC1c1ccccc1` (stereo not drawn) [Compound 47, 1-(2-Phenylpiperidin-1-yl)ethan-1-one], in data set [1], the inhibition at 25 µM was -14 ± 2%, the inhibition at 50 µM was -3 ± 2% and the IC50 was more than 25 µM. In data set [2], the cytotoxic concentration (CC50) at 72 h was more than 50 µM; the viability at 72 h, 12.5 µM amounted to 95 ± 2%; the viability at 72 h, 25 µM turned out to be 93 ± 5%.
With `CCC(C)CNCC(=O)N1CCc2sccc2C1C1CCCCC1` (stereo not drawn) [Compound 36, 1-(4-Cyclohexyl-6,7-dihydrothieno[3,2-c]pyridin-5(4H)-yl)-2-((2-methylbutyl)amino)ethan-1-one], in data set [1], the “HHAT inhibition in the acyl-cLIP assay” value is “loss of activity”, the inhibition at 25 µM came to 24 ± 1%, the inhibition at 50 µM stood at 24 ± 14% and the IC50 was more than 25 µM. Also, in data set [2], the viability at 72 h, 12.5 µM came to 47 ± 4% and the viability at 72 h, 25 µM came to 25 ± 1%.
In the case of `N[C@@H](Cc1ccccc1)C(=O)N1CCc2sccc2C1c1ccccc1` (stereo partly drawn) [Compound 11, (2S)-2-Amino-3-phenyl-1-(4-phenyl-6,7-dihydrothieno[3,2-c]pyridin-5(4H)-yl)propan-1-one], in data set [1], the inhibition at 25 µM was -6 ± 3%, the inhibition at 50 µM was -2 ± 6% and the IC50 is more than 25 µM. Moreover, in data set [2], the viability at 72 h, 12.5 µM is 46 ± 2% and the viability at 72 h, 25 µM worked out at 38 ± 1%.
In the case of `C=CC(=O)N1CCCCC1c1ccccc1` (stereo not drawn) [Compound 48, 1-(2-Phenylpiperidin-1-yl)prop-2-en-1-one], in data set [1], the inhibition at 25 µM was -2 ± 3%, the inhibition at 50 µM is -3 ± 2% and the IC50 was more than 25 µM. In data set [2], the cytotoxic concentration (CC50) at 72 h is more than 100 µM; the viability at 72 h, 12.5 µM was 93 ± 2%; the viability at 72 h, 25 µM worked out at 90 ± 2%.
`CC(=S)N1CCc2sccc2C1c1ccccc1` (stereo not drawn) [Compound 6]: in data set [1], the inhibition at 25 µM is 44 ± 7%, the inhibition at 50 µM came out at 38 ± 2% and the IC50 was more than 25 µM. In addition, in data set [2], the viability at 72 h, 12.5 µM was 27 ± 2% and the viability at 72 h, 25 µM stood at 29 ± 5%.
`CC(=O)N1CCc2sccc2C1c1ccccc1O` (stereo not drawn) [Compound 33]: in data set [1], the inhibition at 25 µM is 24 ± 1%, the inhibition at 50 µM worked out at 31 ± 1% and the 50% inhibitory concentration (IC50) was more than 25 µM. For the same compound, in data set [2], the CC50 at 72 h was more than 100 µM; the viability at 72 h, 12.5 µM worked out at 88 ± 3%; the viability at 72 h, 25 µM came out at 87 ± 5%.
Regarding `C=CC(=O)N1CCn2cccc2C1c1ccccc1` (stereo not drawn) [Compound 46, 1-(1-Phenyl-3,4-dihydropyrrolo[1,2-a]pyrazin-2(1H)-yl)prop-2-en-1-one], in data set [1], the “HHAT inhibition in the acyl-cLIP assay” value is reported as “loss of potency”, the inhibition at 25 µM was found to be 7 ± 1%, the inhibition at 50 µM came out at 12 ± 1% and the 50% inhibitory concentration (IC50) is more than 25 µM. Also, in data set [2], the cytotoxic concentration (CC50) at 72 h was more than 100 µM; the viability at 72 h, 12.5 µM is 96 ± 2%; the viability at 72 h, 25 µM amounted to 97 ± 2%.
For `O=C([C@@H]1CCCN1)N1CCc2sccc2C1c1ccccc1` (mixture of isomers) [Compound 9, (S)-4-Phenyl-5-prolyl-4,5,6,7-tetrahydrothieno[3,2-c]pyridine], in data set [1], the inhibition at 25 µM was determined as 4 ± 5%, the inhibition at 50 µM was determined as 30 ± 2% and the 50% inhibitory concentration (IC50) was more than 25 µM. Moreover, in data set [2], the viability at 72 h, 12.5 µM was 90 ± 5% and the viability at 72 h, 25 µM is 81 ± 5%.
Regarding `Clc1ccc(OCC2NCCc3sccc32)cc1` (stereo not drawn) [Compound 1], in data set [1], the “HHAT inhibition in the acyl-cLIP assay” value was “inactive”, the inhibition at 25 µM stood at 16 ± 5%, the inhibition at 50 µM was determined as 2 ± 2% and the IC50 is more than 25 µM. Also, in data set [2], the viability at 72 h, 12.5 µM was 95 ± 3% and the viability at 72 h, 25 µM worked out at 84 ± 4%.
With `C=CC(=O)N1CCCCC1c1ccccn1` (stereo not drawn) [Compound 49, 1-(2-(Pyridin-2-yl)piperidin-1-yl)prop-2-en-1-one], in data set [1], the inhibition at 25 µM turned out to be 8 ± 1%, the inhibition at 50 µM stood at 3 ± 1% and the IC50 is more than 25 µM. For the same compound, in data set [2], the CC50 at 72 h was more than 100 µM; the viability at 72 h, 12.5 µM is 96 ± 2%; the viability at 72 h, 25 µM amounted to 89 ± 2%.
As to `CC(=O)N1CCc2sccc2[C@H]1c1cccc(C)n1` [Compound 27, (S)-1-(4-(6-Methylpyridin-2-yl)-6,7-dihydrothieno[3,2-c]pyridin-5(4H)-yl)ethan-1-one], in data set [1], the “HHAT inhibition in the acyl-cLIP assay” value is on record as “no inhibitory activity”, the inhibition at 25 µM is 4 ± 7%, the inhibition at 50 µM came to 27 ± 6% and the 50% inhibitory concentration (IC50) was more than 100 µM. For the same compound, in data set [2], the CC50 at 72 h was more than 100 µM; the viability at 72 h, 12.5 µM was determined as 90 ± 4%; the viability at 72 h, 25 µM amounted to 89 ± 3%.
